Experiments:
[1] = system: Transplanted HCC1954 tumor; test: Inhibitory assay of conjugates LDC11A, LDC11B against xenograf tumors; type: in vivo, nude mice; settings: for Body weight of mice / Tumor size: HCC1954 tumor, 10 mg/kg
Description: (§1) Animal: nude mice, aged 6-8 weeks, female
(§2) 1) human large cell lung cancer cell H460, ovarian cancer cell SKOV3, breast cancer cell line HCC1954, and human breast cancer cell SK-BR-3 were incubated at 37° C., 5% CO2 in IMDM medium containing 10% fetal bovine serum, the cells were passaged every 2-3 days.
(§3) 2) generation of tumors: 7×10^6 tumor cells were subcutaneously injected into the back of nude mice, and the mice were grouped for treatment after the tumor sizes were as large as about 100˜200 mm^3.
(§4) 3) treatment: 3 mice/group, treated with LDC11A, LDC11B, as well as controls MMAE and PBS with doses of 5 and 10 mg/kg every 5 days, three injections.
(§5) 4) the physical performance, body weights and tumor sizes of the animals were monitored. The number of animal death was recorded during the experiment.

Transplanted H460 tumor = test: as above; type: in vivo, nude mice; settings: for Body weight of mice / Tumor size: H460 tumor, 10 mg/kg
Description: as §1, §2, §3, §4, §5

Transplanted SKOV3 tumor = test: as above; type: in vivo, nude mice; settings: for Body weight of mice / Tumor size: SKOV3 tumor, 10 mg/kg
Description: as §1, §2, §3, §4, §5

[2] = Cytotoxicity test of conjugate LDC11B; type: cell-based, human; settings: human, 293A embryonic kidney cells, incubated 15-30 min, then 2-3 days
Description: Culture medium: RPMI 1640 Medium, no folic acid
1) human lung cancer cell H460, ovarian cancer cell SKOV3, human embryonic kidney cell 293A were incubated at 37° C., 5% CO2 in RPMI 1640 medium containing 10% fetal bovine serum, the cells were passaged every 2-3 days.
2) human lung cancer cell H460, ovarian cancer cell SKOV3, human embryonic kidney cell 293A were plated at 1×10^3 cells per well (96-well plate) and incubated for 8-12 h at 37° C., 5% CO2.
3) Stock solutions of LDC conjugates or control were prepared in PBS solution. 100 μL/well of serially diluted LDC conjugates or control was added to the cells in the plate and incubated for 15-30 min at 37° C., 5% CO2. The culture medium in the wells was then removed by aspiration and the cells were incubated in fresh culture medium without conjugates (150 μL/well) for 2-3 days at 37° C., 5% CO2.
4) CellTiter 96® Aqueous One Solution Cell Proliferation Assay (Promega) was added to each well to measure the amount of […] cells, and the plate was incubated in an incubator for 1 h at 37° C., 5% CO2.
5) The plate was read at 490 nm on a microplate reader, and the cell survivals were compared for cells with or without the treatment of LDC conjugates. The LDC drug concentrations that are required for 50% cell death (IC50 values) were determined.

CC[C@H](C)[C@@H]([C@@H](CC(=O)N1CCC[C@H]1[C@H](OC)[C@@H](C)C(=O)N[C@H](C)[C@@H](O)c1ccccc1)OC)N(C)C(=O)[C@@H](NC(=O)[C@H](C(C)C)N(C)C(=O)OCc1ccc(NC(=O)[C@H](CCCNC(N)=O)NC(=O)[C@@H](NC(=O)CCCCCN2C(=O)CC(SC[C@H](NC(=O)CNC(=O)[C@@H]3CCCN3C(=O)[C@H](CCCNC(=N)N)NC(=O)[C@H](CC(C)C)NC(=O)CNC(=O)[C@H](Cc3ccc(O)cc3)NC(=O)[C@H](CO)NC(=O)[C@H](Cc3c[nH]c4ccccc34)NC(=O)[C@H](Cc3c[nH]cn3)NC(=O)[C@H](CCC(=O)O)NC(=O)CC[C@H](NC(=O)c3ccc(NCC4=Nc5c([nH]c(N)nc5=O)NC4)cc3)C(=O)O)C(=O)O)C2=O)C(C)C)cc1)C(C)C (stereo partly shown) [LDC11B]
tumor growth (in words) ([1]; HCC1954, three injections at 10 mg/kg): can inhibit the tumor growth | Body weight of mice ([1]; Before Injection): 22.76 g | Tumor size ([1]; Before Injection): 218.76 mm^3 | Body weight of mice ([1]; Five days after Injection 1): 22.56 g | Tumor size ([1]; Five days after Injection 1): 87.51 mm^3 | Body weight of mice ([1]; Five days after Injection 2): 23.15 g | Tumor size ([1]; Five days after Injection 2): 0 mm^3 | Body weight of mice ([1]; Five days after Injection 3): 23.48 g | Tumor size ([1]; Five days after Injection 3): 0 mm^3 | tumor growth (in words) (Transplanted H460 tumor; H460, three injections at 10 mg/kg): can inhibit the tumor growth | Body weight of mice (Transplanted H460 tumor; Before Injection): 21.85 g | Tumor size (Transplanted H460 tumor; Before Injection): 225.32 mm^3 | Body weight of mice (Transplanted H460 tumor; Five days after Injection 1): 22.2 g | Tumor size (Transplanted H460 tumor; Five days after Injection 1): 108.73 mm^3 | Body weight of mice (Transplanted H460 tumor; Five days after Injection 2): 22.55 g | Tumor size (Transplanted H460 tumor; Five days after Injection 2): 0 mm^3 | Body weight of mice (Transplanted H460 tumor; Five days after Injection 3): 22.38 g | Tumor size (Transplanted H460 tumor; Five days after Injection 3): 0 mm^3 | tumor growth (in words) (Transplanted SKOV3 tumor; SKOV3, three injections at 10 mg/kg): can inhibit the tumor growth | Body weight of mice (Transplanted SKOV3 tumor; Before Injection): 22.11 g | Tumor size (Transplanted SKOV3 tumor; Before Injection): 169.22 mm^3 | Body weight of mice (Transplanted SKOV3 tumor; Five days after Injection 1): 24.28 g | Tumor size (Transplanted SKOV3 tumor; Five days after Injection 1): 137.66 mm^3 | Body weight of mice (Transplanted SKOV3 tumor; Five days after Injection 2): 23.6 g | Tumor size (Transplanted SKOV3 tumor; Five days after Injection 2): 76.13 mm^3 | Body weight of mice (Transplanted SKOV3 tumor; Five days after Injection 3): 24.92 g | Tumor size (Transplanted SKOV3 tumor; Five days after Injection 3): 27.84 mm^3 | IC50 [2]: 524 nM
